Experimental data taken from paper PMC9412875, “^64Cu-DOTHA2-PSMA, a Novel PSMA PET Radiotracer for Prostate Cancer with a Long Imaging Time Window” (Pharmaceuticals, 2022).

Assays:
LNCaP tumor = experiment: PET imaging of LNCaP tumor-bearing mice; assay type: in vivo, NRG mice
Description: All the experiments were conducted according to a protocol approved by the Animal Ethics Committee of the Université de Sherbrooke and were in accordance with the guidelines of the Canadian Council on Animal Care. All animal manipulations that could cause pain, stress, or that required immobilization were performed under isoflurane anesthesia (2% in 2 L/min oxygen) with a heating pad or bed. When protocols required animal death (e.g., biodistribution) or ethical limits (e.g., tumor size) were reached, euthanasia was performed by CO2 inhalation under isoflurane anesthesia. […] For PET imaging, NRG mice were used (The Jack Laboratory, 7–10 weeks old, and 19–26 g at time of experiment). A total of 200 µL of a 1:1 Matrigel/PBS mixture containing […] LNCaP cells was injected subcutaneously on each shoulder of NRG mice. Experiments were initiated 2 to 4 weeks after inoculation when tumors reached a diameter between 5 and 10 mm.
Dynamic (0–1 h p.i.) and static (4 h, 20 min long and 24 h p.i., 1h long) PET assays were performed in combination with 5 min CT in NRG mice injected with 8 MBq of ^64Cu-DOTHA2-PSMA in 0.3 mL of saline through the tail vein (LabPET 8/-Triumph; Gamma Medica, Northridge, CA, USA). Blocking was achieved by the co-injection of 20 nmol of ^natCu-DOTHA2-PSMA (n = 3 per group). We selected this blocking agent because its pharmacokinetics are similar to ^64Cu-DOTHA2-PSMA. PET images were reconstructed using the three-dimensional maximum likelihood […] method (MLEM-3D) algorithm with 20 iterations and a 60 mm field-of-view (Gamma Medica). The analyses were conducted using AMIDE software 1.0.4. Quantitative image data were reported as %IA per volume (centimeter cube, cc).

LNCaP cells [1] = experiment: Cellular uptake and internalization assays; assay type: cell-based, human; settings: for cellular uptake: n = 9
Description: Here, 12-well polylysine-coated Cellbind plates were seeded with 150 × 10^3 LNCaP cells with 1.75 mL of cell media. At 70–100% confluence (3 days of growth), the cell medium was changed and 37 kBq of ^64Cu-DOTHA2-PSMA in 1 mL of cell medium was added to each well of group 1 and 160 kBq to each of group 2.
Uptake and internalization assay cells were incubated for 15, 30, 45, 60 min, 2 h, 3 h, and 4 h in group 1 or 4 h, 8 h, 12 h, 24 h, 36 h, and 48 h in group 2 (3 wells per time point in all groups). Repetition of the 4 h time point was used to ensure reproducibility. After incubation, the medium was removed, and cells were washed with 1 mL of cold PBS. For the uptake assays, cells were directly treated with 1 mL of trypsin to be collected and their activity was assayed (HIDEX AMG Gamma Counter 425-601). For internalization assays, cells were incubated with 1 mL of acidic glycine (50 mM, pH = 2,8) for 5 min to remove membrane-bound ^64Cu-DOTHA2-PSMA, washed with 3 mL of cold PBS, and collected using 1 mL of trypsin to be measured in the gamma-counter. Uptake and internalization results were expressed as the percentage of activity injected in the well (IA) in functions of time, normalized to 10^6 cells.
All the assays were performed at least 3 times, each with different ^64Cu-DOTHA2-PSMA production and cell passage. Cells were counted in 3 wells for each protocol (uptake, internalization, and efflux) on day 1 and day 3 of each experiment and an average for cells numbers at day 2.

LNCaP cells [2] = experiment: Cellular efflux assay; assay type: cell-based, human; settings: 1h incubation, efflux time 3 h
[3] = Lipophilicity (log D), octanol/PBS partition; assay type: physicochemical; settings: octanol / PBS pH 7.4, triplicate
Description: For log D measurements, 8 MBq of ^64Cu-DOTHA2-PSMA was added to a pre-saturated mixture of phosphate-buffered saline pH 7.4 (500 µL) and octanol (500 µL). Samples were shaken for 30 min at room temperature, centrifuged at 7000 rpm for 5 min, and 100 µL of each phase was counted using a Packard Cobra gamma counter. Experiments were performed in triplicate and the value was presented as log Dmean ± SD, where D was calculated as D = (Average of CPM in octanol / CPM in PBS).

CN([O-])C(=O)CN1CCN(CC(=O)NCC2CCC(C(=O)NC(Cc3ccc4ccccc4c3)C(=O)NCCCCC(NC(=O)NC(CCC(=O)O)C(=O)O)C(=O)O)CC2)CCN(CC(=O)N(C)[O-])CCN(CC(=O)N(C)O)CC1.[64Cu+2] (stereo not drawn) [^64Cu-DOTHA2-PSMA]
tumor uptake (PET) (LNCaP tumor; 1 h p.i., co-injection of blocking agent (20 nmol natCu-DOTHA2-PSMA)): 4.78 ± 0.96 % IA/cc | liver uptake (PET, peak) (LNCaP tumor; 4 h p.i.): 26.8 ± 5.3 % IA/cc | tumor uptake (PET) (LNCaP tumor; 4 h p.i., co-injection of blocking agent (20 nmol natCu-DOTHA2-PSMA)): 7.46 ± 1.07 % IA/cc | tumor uptake (PET) (LNCaP tumor; 24 h p.i., co-injection of blocking agent (20 nmol natCu-DOTHA2-PSMA)): 8.62 ± 0.74 % IA/cc | tumor uptake (PET) (LNCaP tumor; LNCaP tumor, NRG mice, 1 h p.i., non-blocked): 14.0 ± 5.0 % IA/cc | tumor uptake (PET) (LNCaP tumor; LNCaP tumor, NRG mice, 4 h p.i., non-blocked): 23.8 ± 11.5 % IA/cc | tumor uptake (PET) (LNCaP tumor; LNCaP tumor, NRG mice, 24 h p.i., non-blocked): 18.5 ± 6.6 % IA/cc | time of highest tumoral uptake (LNCaP tumor; PET, LNCaP tumor): 4 h p.i. | time of peak kidney uptake, calyxes (LNCaP tumor; dynamic PET): 10 min p.i. | time of peak kidney uptake, cortex (LNCaP tumor; dynamic PET): 5 min p.i. | tumor-to-kidney ratios (LNCaP tumor; from 1 h p.i.): greater than 1 | time of peak of urinary clearance (kidney calyxes and cortex signals) (LNCaP tumor; time-activity curves): ≤ 10 min | cellular uptake (LNCaP cells [1]; 30 min): 22.0 ± 8.8 % IA/10^6 cells | internalization (LNCaP cells [1]; 2 h): 12.2 ± 6.7 % IA/10^6 cells | internalization (LNCaP cells [1]; 48 h): 34.1 ± 4.9 % IA/10^6 cells | cellular uptake (LNCaP cells [1]; 48 h): 34.5 ± 13.6 % IA/10^6 cells | Retained activity normalized to time 0 (LNCaP cells [2]): 76.53% | log D [3]: -0.96 ± 0.61
